# Assay results as given in PubChem BioAssay (NCI).
#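 Cultured in 96-well plates, cells were exposed to test compound for 48 hours across five concentrations. Here, GI50 denotes the concentration required for 50% inhibition of growth. Definition used: TGI = concentration required for complete inhibition of growth.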
# System: 786-0 renal
# Assay: DTP human tumour cell line panel, 48 h
SMILES,TGI,GI50
CN1C(=O)C2(Cc3cn(C45CC67SSC(CO)(C(=O)N6C4Nc4ccccc45)N(C)C7=O)c4ccccc34)SSC1(CO)C(=O)N2C (stereo unspecified),0.0283 µM,
CCCn1cnc2c(SCc3ccccc3Cl)nc(N)nc21,31.6 µM,14.9 µM
Cc1ccc(NC(=O)c2cccc(N(C)C)c2)cc1NC(=O)c1ccc(O)cc1,> 100 µM,> 71.5 µM
O=C(N/N=C/c1ccccc1O)c1ccccc1Nc1ccnc(C(F)(F)F)c1,9.26 µM,0.46 µM

# System: A498 renal
# Assay: DTP human tumour cell line panel, 48 h
SMILES,GI50,TGI
CCCn1cnc2c(SCc3ccccc3Cl)nc(N)nc21,18.3 µM,> 100 µM
Cc1ccc(NC(=O)c2cccc(N(C)C)c2)cc1NC(=O)c1ccc(O)cc1,> 83.6 µM,> 100 µM
O=C(N/N=C/c1ccccc1O)c1ccccc1Nc1ccnc(C(F)(F)F)c1,18.1 µM,> 91.6 µM

# System: A549 NSCLC
# Assay: DTP human tumour cell line panel, 48 h
SMILES,GI50,TGI
CCCn1cnc2c(SCc3ccccc3Cl)nc(N)nc21,20.8 µM,> 100 µM
Cc1ccc(NC(=O)c2cccc(N(C)C)c2)cc1NC(=O)c1ccc(O)cc1,61.4 µM,> 100 µM
O=C(N/N=C/c1ccccc1O)c1ccccc1Nc1ccnc(C(F)(F)F)c1,0.505 µM,> 30.9 µM

# System: ACHN renal
# Assay: DTP human tumour cell line panel, 48 h
SMILES,TGI,GI50
CN1C(=O)C2(Cc3cn(C45CC67SSC(CO)(C(=O)N6C4Nc4ccccc45)N(C)C7=O)c4ccccc34)SSC1(CO)C(=O)N2C (stereo unspecified),0.0776 µM,
CCCn1cnc2c(SCc3ccccc3Cl)nc(N)nc21,67.4 µM,13.6 µM
Cc1ccc(NC(=O)c2cccc(N(C)C)c2)cc1NC(=O)c1ccc(O)cc1,> 100 µM,> 63.6 µM
O=C(N/N=C/c1ccccc1O)c1ccccc1Nc1ccnc(C(F)(F)F)c1,> 63.5 µM,0.342 µM

# System: BT-549 breast
# Assay: DTP human tumour cell line panel, 48 h
SMILES,GI50,TGI
CCCn1cnc2c(SCc3ccccc3Cl)nc(N)nc21,13.7 µM,44 µM
Cc1ccc(NC(=O)c2cccc(N(C)C)c2)cc1NC(=O)c1ccc(O)cc1,> 64 µM,> 100 µM
O=C(N/N=C/c1ccccc1O)c1ccccc1Nc1ccnc(C(F)(F)F)c1,0.527 µM,59 µM

# System: CAKI-1 renal
# Assay: DTP human tumour cell line panel, 48 h
SMILES,GI50,TGI
CCCn1cnc2c(SCc3ccccc3Cl)nc(N)nc21,6.43 µM,44.1 µM
Cc1ccc(NC(=O)c2cccc(N(C)C)c2)cc1NC(=O)c1ccc(O)cc1,52.8 µM,> 100 µM
O=C(N/N=C/c1ccccc1O)c1ccccc1Nc1ccnc(C(F)(F)F)c1,0.337 µM,10.3 µM

# System: CCRF-CEM leukemia
# Assay: DTP human tumour cell line panel, 48 h
SMILES,TGI,GI50
CN1C(=O)C2(Cc3cn(C45CC67SSC(CO)(C(=O)N6C4Nc4ccccc45)N(C)C7=O)c4ccccc34)SSC1(CO)C(=O)N2C (stereo unspecified),> 100 µM,
CCCn1cnc2c(SCc3ccccc3Cl)nc(N)nc21,47.3 µM,5.9 µM
Cc1ccc(NC(=O)c2cccc(N(C)C)c2)cc1NC(=O)c1ccc(O)cc1,> 100 µM,16.6 µM
O=C(N/N=C/c1ccccc1O)c1ccccc1Nc1ccnc(C(F)(F)F)c1,,0.123 µM

# System: COLO 205 colon
# Assay: DTP human tumour cell line panel, 48 h
SMILES,GI50,TGI
CCCn1cnc2c(SCc3ccccc3Cl)nc(N)nc21,10.7 µM,> 100 µM
Cc1ccc(NC(=O)c2cccc(N(C)C)c2)cc1NC(=O)c1ccc(O)cc1,> 64.7 µM,> 100 µM
O=C(N/N=C/c1ccccc1O)c1ccccc1Nc1ccnc(C(F)(F)F)c1,0.3 µM,41.3 µM

# System: DU-145 prostate
# Assay: DTP human tumour cell line panel, 48 h
SMILES,TGI,GI50
CN1C(=O)C2(Cc3cn(C45CC67SSC(CO)(C(=O)N6C4Nc4ccccc45)N(C)C7=O)c4ccccc34)SSC1(CO)C(=O)N2C (stereo unspecified),0.173 µM,
CCCn1cnc2c(SCc3ccccc3Cl)nc(N)nc21,45.6 µM,15.5 µM
Cc1ccc(NC(=O)c2cccc(N(C)C)c2)cc1NC(=O)c1ccc(O)cc1,> 100 µM,62.6 µM
O=C(N/N=C/c1ccccc1O)c1ccccc1Nc1ccnc(C(F)(F)F)c1,> 48.7 µM,0.478 µM

# System: EKVX NSCLC
# Assay: DTP human tumour cell line panel, 48 h
SMILES,TGI,GI50
CN1C(=O)C2(Cc3cn(C45CC67SSC(CO)(C(=O)N6C4Nc4ccccc45)N(C)C7=O)c4ccccc34)SSC1(CO)C(=O)N2C (stereo unspecified),0.166 µM,
CCCn1cnc2c(SCc3ccccc3Cl)nc(N)nc21,> 100 µM,24.2 µM
Cc1ccc(NC(=O)c2cccc(N(C)C)c2)cc1NC(=O)c1ccc(O)cc1,> 100 µM,> 79.7 µM
O=C(N/N=C/c1ccccc1O)c1ccccc1Nc1ccnc(C(F)(F)F)c1,67.2 µM,0.302 µM

# System: HCC-2998 colon
# Assay: DTP human tumour cell line panel, 48 h
SMILES,TGI,GI50
CN1C(=O)C2(Cc3cn(C45CC67SSC(CO)(C(=O)N6C4Nc4ccccc45)N(C)C7=O)c4ccccc34)SSC1(CO)C(=O)N2C (stereo unspecified),0.136 µM,
CCCn1cnc2c(SCc3ccccc3Cl)nc(N)nc21,67 µM,17.8 µM
Cc1ccc(NC(=O)c2cccc(N(C)C)c2)cc1NC(=O)c1ccc(O)cc1,> 100 µM,74.8 µM
O=C(N/N=C/c1ccccc1O)c1ccccc1Nc1ccnc(C(F)(F)F)c1,24.7 µM,0.388 µM

# System: HCT-116 colon
# Assay: DTP human tumour cell line panel, 48 h
SMILES,TGI,GI50
CN1C(=O)C2(Cc3cn(C45CC67SSC(CO)(C(=O)N6C4Nc4ccccc45)N(C)C7=O)c4ccccc34)SSC1(CO)C(=O)N2C (stereo unspecified),0.115 µM,
CCCn1cnc2c(SCc3ccccc3Cl)nc(N)nc21,17.5 µM,5.2 µM
Cc1ccc(NC(=O)c2cccc(N(C)C)c2)cc1NC(=O)c1ccc(O)cc1,> 100 µM,> 59.4 µM
O=C(N/N=C/c1ccccc1O)c1ccccc1Nc1ccnc(C(F)(F)F)c1,20.9 µM,0.414 µM

# System: HCT-15 colon
# Assay: DTP human tumour cell line panel, 48 h
SMILES,GI50,TGI
CCCn1cnc2c(SCc3ccccc3Cl)nc(N)nc21,1.36 µM,20.1 µM
Cc1ccc(NC(=O)c2cccc(N(C)C)c2)cc1NC(=O)c1ccc(O)cc1,53.3 µM,> 100 µM
O=C(N/N=C/c1ccccc1O)c1ccccc1Nc1ccnc(C(F)(F)F)c1,0.177 µM,> 100 µM

# System: HL-60(TB) leukemia
# Assay: DTP human tumour cell line panel, 48 h
SMILES,TGI,GI50
CN1C(=O)C2(Cc3cn(C45CC67SSC(CO)(C(=O)N6C4Nc4ccccc45)N(C)C7=O)c4ccccc34)SSC1(CO)C(=O)N2C (stereo unspecified),> 100 µM,
CCCn1cnc2c(SCc3ccccc3Cl)nc(N)nc21,28.6 µM,5.53 µM
Cc1ccc(NC(=O)c2cccc(N(C)C)c2)cc1NC(=O)c1ccc(O)cc1,> 100 µM,46.3 µM
O=C(N/N=C/c1ccccc1O)c1ccccc1Nc1ccnc(C(F)(F)F)c1,1.69 µM,0.293 µM

# System: HOP-62 NSCLC
# Assay: DTP human tumour cell line panel, 48 h
SMILES,TGI,GI50
CN1C(=O)C2(Cc3cn(C45CC67SSC(CO)(C(=O)N6C4Nc4ccccc45)N(C)C7=O)c4ccccc34)SSC1(CO)C(=O)N2C (stereo unspecified),0.277 µM,
CCCn1cnc2c(SCc3ccccc3Cl)nc(N)nc21,> 100 µM,21.1 µM
Cc1ccc(NC(=O)c2cccc(N(C)C)c2)cc1NC(=O)c1ccc(O)cc1,> 100 µM,54.2 µM
